According to PubChem BioAssay (NCI):
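Step 1: Grow cells in 96-well plates. Step 2: Expose to compound for 48 hours at 5 concentrations. Step 3: Interpolate endpoints linearly; if unreached, use highest concentration. The concentration for full growth arrest is given as TGI.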

What was measured:
Experiment in all cases: NCI-60 cell line screen, 48 h
786-0 renal = system: 786-0 renal
A549 NSCLC = system: A549 NSCLC
ACHN renal = system: ACHN renal
CAKI-1 renal = system: CAKI-1 renal
CCRF-CEM leukemia = system: CCRF-CEM leukemia
COLO 205 colon = system: COLO 205 colon
DLD-1 colon = system: DLD-1 colon
DMS 114 small cell lung = system: DMS 114 small cell lung
DMS 273 small cell lung = system: DMS 273 small cell lung
HCC-2998 colon = system: HCC-2998 colon
HCT-116 colon = system: HCT-116 colon
HCT-15 colon = system: HCT-15 colon
HL-60(TB) leukemia = system: HL-60(TB) leukemia
HOP-62 NSCLC = system: HOP-62 NSCLC
HOP-92 NSCLC = system: HOP-92 NSCLC
HT29 colon = system: HT29 colon
IGROV1 ovarian = system: IGROV1 ovarian
K-562 leukemia = system: K-562 leukemia
KM12 colon = system: KM12 colon
KM20L2 colon = system: KM20L2 colon
LXFL 529 NSCLC = system: LXFL 529 NSCLC
M14 melanoma = system: M14 melanoma
M19-MEL melanoma = system: M19-MEL melanoma
MALME-3M melanoma = system: MALME-3M melanoma
MOLT-4 leukemia = system: MOLT-4 leukemia
NCI-H226 lung = system: NCI-H226 lung
NCI-H23 lung = system: NCI-H23 lung
NCI-H460 lung = system: NCI-H460 lung
NCI-H522 lung = system: NCI-H522 lung
OVCAR-3 ovarian = system: OVCAR-3 ovarian
OVCAR-4 ovarian = system: OVCAR-4 ovarian
OVCAR-5 ovarian = system: OVCAR-5 ovarian
OVCAR-8 ovarian = system: OVCAR-8 ovarian
RPMI-8226 leukemia = system: RPMI-8226 leukemia
SF-268 CNS = system: SF-268 CNS
SF-295 CNS = system: SF-295 CNS
SF-539 CNS = system: SF-539 CNS
SK-MEL-2 melanoma = system: SK-MEL-2 melanoma
SK-MEL-28 melanoma = system: SK-MEL-28 melanoma
SK-MEL-5 melanoma = system: SK-MEL-5 melanoma
SNB-19 CNS = system: SNB-19 CNS
SNB-75 CNS = system: SNB-75 CNS
SR leukemia = system: SR leukemia
SW-620 colon = system: SW-620 colon
TK-10 renal = system: TK-10 renal
U251 CNS = system: U251 CNS
UACC-257 melanoma = system: UACC-257 melanoma
UACC-62 melanoma = system: UACC-62 melanoma
UO-31 renal = system: UO-31 renal
A498 renal = system: A498 renal
EKVX NSCLC = system: EKVX NSCLC
HOP-18 NSCLC = system: HOP-18 NSCLC
LOX IMVI melanoma = system: LOX IMVI melanoma
RXF 393 renal = system: RXF 393 renal
SK-OV-3 ovarian = system: SK-OV-3 ovarian
SN12C renal = system: SN12C renal
SNB-78 CNS = system: SNB-78 CNS

Q: What does the source list for `Nc1ccc(/C=C/c2ccnc3ccccc23)cc1`?
A: TGI (786-0 renal): 57.6 µM; TGI (A549 NSCLC): 71.4 µM; TGI (ACHN renal): > 100 µM; TGI (CAKI-1 renal): 63.9 µM; TGI (CCRF-CEM leukemia): 40.7 µM; TGI (COLO 205 colon): 48.6 µM; TGI (DLD-1 colon): > 100 µM; TGI (DMS 114 small cell lung): 45.8 µM; TGI (DMS 273 small cell lung): 48.9 µM; TGI (HCC-2998 colon): 57.7 µM; TGI (HCT-116 colon): 42.4 µM; TGI (HCT-15 colon): > 100 µM; TGI (HL-60(TB) leukemia): 23.8 µM; TGI (HOP-62 NSCLC): 41.5 µM; TGI (HOP-92 NSCLC): 50.9 µM; TGI (HT29 colon): 65.1 µM; TGI (IGROV1 ovarian): > 100 µM; TGI (K-562 leukemia): 44 µM; TGI (KM12 colon): 49.3 µM; TGI (KM20L2 colon): 46.6 µM; TGI (LXFL 529 NSCLC): 58.7 µM; TGI (M14 melanoma): 51.5 µM; TGI (M19-MEL melanoma): 90 µM; TGI (MALME-3M melanoma): 97.3 µM; TGI (MOLT-4 leukemia): 38.7 µM; TGI (NCI-H226 lung): 47.7 µM; TGI (NCI-H23 lung): 50.1 µM; TGI (NCI-H460 lung): 49.1 µM; TGI (NCI-H522 lung): 30.7 µM; TGI (OVCAR-3 ovarian): 48.7 µM; TGI (OVCAR-4 ovarian): > 100 µM; TGI (OVCAR-5 ovarian): 60.9 µM; TGI (OVCAR-8 ovarian): 88.2 µM; TGI (RPMI-8226 leukemia): 52.7 µM; TGI (SF-268 CNS): 47.5 µM; TGI (SF-295 CNS): 46.1 µM; TGI (SF-539 CNS): 47.9 µM; TGI (SK-MEL-2 melanoma): 37.6 µM; TGI (SK-MEL-28 melanoma): > 100 µM; TGI (SK-MEL-5 melanoma): 29.6 µM; TGI (SNB-19 CNS): 79.3 µM; TGI (SNB-75 CNS): 41.8 µM; TGI (SR leukemia): 32.4 µM; TGI (SW-620 colon): 97.7 µM; TGI (TK-10 renal): 57.7 µM; TGI (U251 CNS): 59.4 µM; TGI (UACC-257 melanoma): 57.8 µM; TGI (UACC-62 melanoma): 56.9 µM; TGI (UO-31 renal): 47.5 µM

Q: What does the source list for `Cc1ccc2nc3c(C(=O)NCCN(C)C)cccc3nc2c1`?
A: TGI (786-0 renal): > 77.2 µM; TGI (A498 renal): 8.7 µM; TGI (A549 NSCLC): > 100 µM; TGI (ACHN renal): 14.9 µM; TGI (CAKI-1 renal): > 31.6 µM; TGI (COLO 205 colon): > 22.4 µM; TGI (DMS 114 small cell lung): 11.6 µM; TGI (DMS 273 small cell lung): > 100 µM; TGI (EKVX NSCLC): 24.2 µM; TGI (HCC-2998 colon): 32.3 µM; TGI (HCT-116 colon): 12 µM; TGI (HCT-15 colon): 18 µM; TGI (HL-60(TB) leukemia): > 100 µM; TGI (HOP-18 NSCLC): > 87.3 µM; TGI (HOP-62 NSCLC): 14 µM; TGI (HOP-92 NSCLC): > 22.4 µM; TGI (HT29 colon): 15.4 µM; TGI (IGROV1 ovarian): > 60.1 µM; TGI (K-562 leukemia): 9.27 µM; TGI (KM12 colon): 20.2 µM; TGI (KM20L2 colon): 18.2 µM; TGI (LOX IMVI melanoma): 5.19 µM; TGI (LXFL 529 NSCLC): > 47.1 µM; TGI (M14 melanoma): > 33.7 µM; TGI (M19-MEL melanoma): 7.29 µM; TGI (MALME-3M melanoma): 8.37 µM; TGI (MOLT-4 leukemia): 6.29 µM; TGI (NCI-H226 lung): 10.4 µM; TGI (NCI-H23 lung): 17.1 µM; TGI (NCI-H522 lung): > 100 µM; TGI (OVCAR-3 ovarian): 32.4 µM; TGI (OVCAR-4 ovarian): 15.2 µM; TGI (OVCAR-5 ovarian): 29.8 µM; TGI (OVCAR-8 ovarian): > 42.2 µM; TGI (RPMI-8226 leukemia): 40.8 µM; TGI (RXF 393 renal): 15.5 µM; TGI (SF-295 CNS): > 27.1 µM; TGI (SF-539 CNS): 15.7 µM; TGI (SK-MEL-2 melanoma): 12.9 µM; TGI (SK-MEL-28 melanoma): 10.9 µM; TGI (SK-MEL-5 melanoma): > 39.8 µM; TGI (SK-OV-3 ovarian): > 56.3 µM; TGI (SN12C renal): 27.9 µM; TGI (SNB-19 CNS): 46.3 µM; TGI (SNB-75 CNS): 42.9 µM; TGI (SNB-78 CNS): 41.1 µM; TGI (SR leukemia): > 100 µM; TGI (SW-620 colon): > 35.7 µM; TGI (TK-10 renal): > 66 µM; TGI (U251 CNS): 24.3 µM; TGI (UACC-257 melanoma): 14.1 µM; TGI (UACC-62 melanoma): 16.8 µM; TGI (UO-31 renal): > 54.8 µM
